Broadly, the IC50 is the point on the concentration scale where inhibition reaches its midpoint.

Experiment [1] relates to TNFα release from U937 cells. Description: U937 Cell TNFα Release Assay (LPS-stimulated, TNFα ELISA). The class given is cell-based. Particulars: Homo sapiens, read-out: TNFα release assay IC50. The protocol: The human monocyte-like cell line, U937 (ATCC #CRL-1593.2), is cultured in RPMI1640 media with 10% heat-inactivated fetal calf serum (GIBCO), glutamine and pen/strep at 37° C. and 5% CO2. Differentiation of U937 to monocytic/macrophage-like cells is induced by the addition of phorbol12-myristate 13-acetate (Sigma) at final concentration of 20 ng/ml to a culture of U937 cells at ˜0.5 million cells/ml and incubated for 24 hrs. The cells are centrifuged, washed with PBS and resuspended in fresh media without PMA and incubated for 24 hrs. Cells adherent to the culture flask are harvested by scraping, centrifugation, and resuspended in fresh media to 2 million cells/ml, and 0.2 ml is aliquoted to each of 96 wells in flat-bottom plate. Cells are then incubated for an additional 24 hrs to allow for recovery. The media is removed from the cells, and 0.1 ml of fresh media is added per well. 0.05 ml of serially diluted compound or control vehicle (Media with DMSO) is added to the cells. […] After 1 hr incubation, 0.05 ml of 400 ng/ml LPS (E Coli serotype 0111:B4, Sigma) in media is added for final concentration of 100 ng/ml. Cells are incubated at 37° C. for 4 hrs. After 4 hrs incubation, supernatants are harvest and assayed by ELISA for the presence of TNFα.
ELISA plates (NUNC-Immuno™ Plate Maxisorb™ Surface) were coated with purified mouse monoclonal IgG1 anti-human TNFα antibody (R&D Systems #MAB610; 1.25 ug/ml in sodium bicarbonate pH 8.0, 0.1 ml/well) and incubated at 4° C. Coating solution was aspirated the following day and wells were blocked with 1 mg/ml gelatin in PBS (plus 1× thimerasol) for 2 days at 4° C. Prior to using, wells were washed 3× with wash buffer (PBS with 0.05% Tween). Cultured media samples were diluted in EIA buffer (5 mg/ml bovine γ-globulin, 1 mg/ml gelatin, 1 ml/l Tween-20, 1 mg/ml thimerasol in PBS), added to wells (0.1 ml/well) in triplicate and allowed to incubate for 1.5 hr at 37° C. in a humidified chamber. Plates were again washed and 0.1 ml/well of a mixture of rabbit anti-human TNFα polyclonal antibodies in EIA buffer (1:400 dilution of Sigma #T8300, and 1:400 dilution of Calbiochem #654250) was added for 1 hr at 37° C. Plates were washed as before and peroxidase-conjugated goat anti-rabbit IgG (H+L) antibody (Jackson lmmunoResearch #111-035-144, 1 ug/ml in EIA buffer, 0.1 ml/well) was added for 45 min. After final washing, plates were developed with peroxidase-ABTS solution (Kirkegaard/Perry #50-66-01, 0.1 ml/well). Enzymatic conversion of ABTS to colored product was measured after 5-30 minutes using a SpectroMax 340 spectrophotometer (Molecular Devices) at 405 nm. TNF levels were quantitated from a recombinant human TNFα (R&D Systems #210-TA-010) standard curve using a quadratic parameter fit generated by SoftMaxPRO software. ELISA sensitivity was approximately 30 pg TNF/ml. IC50 values for compounds were generated using BioAssay Solver.
A general note: An ELISA detects its analyte on a solid surface through an enzyme-linked reagent.

The test system of the next experiment is TNFα production. Description: Lipopolysaccharide (LPS)-Induced TNFα Production (Rat LPS assay, serum TNFα ELISA). The class given is in vivo, Lewis rats. Particulars: 20 mpk (IG). The protocol: Adult male 225-250 gram Lewis rats (Harlan Sprague-Dawley) were used. Rats were fasted 18 hr prior to oral dosing, and allowed free access to water throughout the experiment. Each treatment group consisted of 5 animals.
Compounds were prepared as a suspension in a vehicle consisting of 0.5% methylcellulose, 0.025% Tween-20 in PBS. Compounds or vehicle were orally administered in a volume of 1 ml using an 18 gauge gavage needle. LPS (E. coli serotype 0111:B4, Lot #39H4103, Cat. # L-2630, Sigma) was administered 1-4 hr later by injection into the penile vein at a dose of 1 mg/kg in 0.5 ml sterile saline. Blood was collected in serum separator tubes via cardiac puncture 1.5 hr after LPS injection, a time point corresponding to maximal TNFα production. […]
ELISA plates (NUNC-Immuno™ Plate Maxisorb™ Surface) were coated with 0.1 ml per well of an Protein G purified fraction of a 2.5 ug/ml of hamster anti-mouse/rat TNFα monoclonal antibody TN19.12 (2.5 ug/ml in PBS, 0.1 ml/well). […] Enzymatic conversion of ABTS to colored product was measured after ˜30 minutes using a SpectroMax 340 spectrophotometer (Molecular Devices Corp.) at 405 nm. TNF levels in serum were quantitated from a recombinant rat TNFα (BioSource International, Cat. #PRC3014.) standard curve using a quadratic parameter fit generated by SoftMaxPRO software. […]

Experiment [2] addresses Recombinant MAPKAPK2 (MK-2) (Homo sapiens, UniProt P49137). Description: Determination of MK-2 IC50 (anion exchange resin capture assay, phosphorylation of HSP-peptide). The class given is biochemical. The protocol:
The phosphorylation of HSP-peptide ([…]) by MAPKAPK2 was measured using an anion exchange resin capture assay method. […] The reaction was terminated and [γ^33P]ATP was removed from solution by the addition of 150 μl of AG 1×8 ion exchange resin in 900 mM sodium formate pH 3.0. A 50 μl aliquot of head volume was removed from the quenched reaction mixture and added to a 96-well plate, 150 μl of Microscint-40 (Packard) was added and the amount of phosphorylated-peptide was determined. Allow the Microscint to sit in the plates for 60 minutes prior to counting.
Compounds are evaluated as potential inhibitors of the MK2 kinase by measuring their effects on MK2 phosphorylation of the peptide substrate. Compounds may be screened initially at two concentrations prior to determination of IC50 values. Screening results are expressed as percent inhibition at the concentrations of compound tested. For IC50 value determinations, compounds are tested at six concentrations in ten-fold serial dilutions with each concentration tested in triplicate. Results are expressed as IC50 values in micromolar. The assay is performed at a final concentration of 2% DMSO.

Setting [3] is: U-937, U937 cells, LPS 100 ng/ml, 4 hrs.

Structures can show the parent of a compound that is named as a salt. Where two headings read alike, the source gives them in different places.

Chain of Recombinant MAPKAPK2 (MK-2) (P49137 whole entry, species assumed): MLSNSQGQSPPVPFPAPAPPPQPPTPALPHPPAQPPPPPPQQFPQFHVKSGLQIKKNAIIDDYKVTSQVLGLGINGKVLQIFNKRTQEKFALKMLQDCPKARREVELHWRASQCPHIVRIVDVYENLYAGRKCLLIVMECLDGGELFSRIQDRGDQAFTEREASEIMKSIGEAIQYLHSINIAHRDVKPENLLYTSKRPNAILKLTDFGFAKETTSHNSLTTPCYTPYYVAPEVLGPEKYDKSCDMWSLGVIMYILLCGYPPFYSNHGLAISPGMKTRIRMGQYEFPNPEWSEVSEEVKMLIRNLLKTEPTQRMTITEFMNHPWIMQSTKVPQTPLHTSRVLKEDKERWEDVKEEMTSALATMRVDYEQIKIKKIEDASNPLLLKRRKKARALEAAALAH

As for `N#Cc1c(N)nc2c(c1-c1cccc(F)c1F)CCc1[nH]ncc1-2.O=C(O)C(F)(F)F.O=C(O)C(F)(F)F` [Example 102, 2-amino-4-(2,3-difluorophenyl)-6,7-dihydro-5H-pyrazolo[3,4-h]quinoline-3-carbonitrile bis(trifluoroacetate)], the IC50 in experiment [1] (U-937, 4 h) came out at 4 µM. Also, the “Rat LPS assay: inhibition of TNFα production” value with TNFα production was found to be 83%. As for `CCOCC1Cc2c(nc(N)c(C#N)c2N)O1` (stereo not drawn) [Example 125, trifluoroacetate], the IC50 in experiment [2] stood at 127 µM. Still for that read-out and setting: with `N#Cc1c(-c2ccc(B(O)O)cc2)cc(-c2ccco2)nc1N` [Example 88, bis(trifluoroacetate)] the figure was 64.6 µM.

For the compound `N#Cc1c(-c2ccco2)cc(-c2cc[nH]n2)nc1N` [Example 106, 2-amino-4-(2-furyl)-6-(1H-pyrazol-3-yl)nicotinonitrile trifluoroacetate], in experiment [1] (setting [3]), the IC50 came to 4 µM.

`N#Cc1c(-c2cnc[nH]2)cc(-c2cccc(O)c2)nc1N` [Example 4, 2-amino-6-(3-hydroxyphenyl)-4-(1H-imidazol-5-yl)nicotinonitrile trifluoroacetate]: in experiment [1] (U-937, 4 h), the IC50 is 7 µM. Besides, the “Rat LPS assay: inhibition of TNFα production” value in the experiment with TNFα production was 41%.

For the compound `N#Cc1c(N)nc2c(c1-c1ccco1)CCc1cn[nH]c1-2` [Example 105, 8-amino-6-(2-furyl)-4,5-dihydro-1H-pyrazolo[4,3-h]quinoline-7-carbonitrile], the IC50 in experiment [1] (setting [3]) came to 0.9 µM. Still for that read-out and setting: with `N#Cc1c(N)nc2c(c1-c1ccccc1)CCc1n[nH]cc1-2` [Example 100, 2-amino-4-phenyl-6,8-dihydro-5H-pyrazolo[3,4-h]quinoline-3-carbonitrile bis(trifluoroacetate)] the figure was 17.7 µM.

For the origin of these results see US20040142978A1, “Aminocyanopyridine inhibitors of mitogen activated protein kinase-activated protein kinase-2” (Pharmacia Corporation, priority 2002, published 2004).
